Results reported in patent US20110039762A1, “TARGETED ANTIMICROBIAL MOIETIES” (C3 JIAN, INC., priority 2009, published 2011).
“Also recorded” adds a separate entry of the source.

Tests used:
MRSA = experiment: Kill or inhibit growth/proliferation; morphology, biofilm and growth disruption (Tables 5, 6); assay type: cell-based, Methicillin-resistant Staphylococcus aureus; set-up: key: A: Peptide aggregates; B: Less hyphal formation; Clumps; Diffuse clumps and small polyps; F: Diffuse growth; H: Thin; I: Growth inhibition; Microcolony formation; Rippled; Small polyps; Thick; W: Halo formation on top, microlonies on bottom; note: test concentration or dose not given here
S. epidermidis = experiment: as above; assay type: cell-based, Staphylococcus epidermidis; set-up: key: A: Peptide aggregates; B: Less hyphal formation; Clumps; Diffuse clumps and small polyps; F: Diffuse growth; H: Thin; I: Growth inhibition; Microcolony formation; Rippled; Small polyps; Thick; W: Halo formation on top, microlonies on bottom
S. pneumoniae = experiment: as above; assay type: cell-based, Streptococcus pneumoniae; set-up: key: A: Peptide aggregates; B: Less hyphal formation; Clumps; Diffuse clumps and small polyps; F: Diffuse growth; H: Thin; I: Growth inhibition; Microcolony formation; Rippled; Small polyps; Thick; W: Halo formation on top, microlonies on bottom; note: test concentration or dose not given here
E. coli = experiment: as above; assay type: cell-based, Escherichia coli; set-up: key: A: Peptide aggregates; B: Less hyphal formation; Clumps; Diffuse clumps and small polyps; F: Diffuse growth; H: Thin; I: Growth inhibition; Microcolony formation; Rippled; Small polyps; Thick; W: Halo formation on top, microlonies on bottom; note: test concentration or dose not given here
microorganisms = experiment: Peptides having multiple activities (targeting/binding, antimicrobial, growth or phenotype altering)
Excerpt: In certain embodiments, peptides described herein can have multiple activities. Thus for example, a peptide can have both binding/targeting activity and antimicrobial activity. Such peptides can be used, e.g., in a chimeric construct, for any or all of these properties. Thus, for example, a peptide designated “B” in Table 8 can be used as a targeting peptide. If it is also designated G or M it can also be used for antimicrobial activity.

[1] = test system: microorganisms (e.g., bacteria, yeasts, fungi); experiment: Targeting peptide binding to target microorganisms (Table 3); settings: microorganism(s) the targeting peptide binds, preferably 1x PBS
[2] = binding in aqueous buffers depending on peptide solubility
[3] = peptide binding conducted in aqueous buffers varied by peptide solubility
Throughout, for Organism, effect: test concentration or dose not given here.

Substance | Organism, effect (MRSA) | Organism, effect (S. epidermidis) | Organism, effect (S. pneumoniae) | Organism, effect (E. coli) | Activities (microorganisms) | Target(s) [1, 2] | Target(s) [1, 3]
PF-178: peptide having multiple activities (EVYSSPTNNVAITVQNN; Peptide with targeting and/or antimicrobial activity) | MRSA (M) | S. epidermidis (D) | S. pneumoniae (D) | E. coli (C) | G B |  | 
PF-360: peptide having multiple activities (chain 1 MEQKVKVIFVPRSKPDNQLKTFVSAVLFKA; chain 2 MEQKVKVIFVPRSKPDNQLKTFVSAVLFKA; Peptide with targeting and/or antimicrobial activity) | MRSA (H) | S. epidermidis (S) |  | E. coli (C) | G B | S. epidermidis; also recorded: B. subtilis; also recorded: E. coli; also recorded: P. aeruginosa; also recorded: C. albicans; also recorded: E. faecalis; also recorded: C. jeikeium; also recorded: C. jejuni | 
PF-370: peptide having multiple activities (chain 1 VIFLHKESGNLKEIFY; chain 2 VIFLHKESGNLKEIFY; Peptide with targeting and/or antimicrobial activity) | MRSA (C) | S. epidermidis (C) |  | E. coli (R) | G B | S. epidermidis; also recorded: E. coli; also recorded: P. aeruginosa; also recorded: E. faecalis; also recorded: C. jejuni | 
PF-395: peptide having multiple activities (YCVPLGNMGNMNNKIW; Peptide with targeting and/or antimicrobial activity) | MRSA (C) | S. epidermidis (C) |  | E. coli (R) | G B |  | S. epidermidis; also recorded: E. coli; also recorded: P. aeruginosa; also recorded: S. pneumoniae; also recorded: E. faecalis; also recorded: C. jeikeium; also recorded: C. jejuni
PF-403: peptide having multiple activities (LLSTEQLLKYYDGETFDGFQLPSNE; Peptide with targeting and/or antimicrobial activity) | MRSA (M) | S. epidermidis (M) |  | E. coli (R) | G B |  | E. coli; also recorded: P. aeruginosa; also recorded: S. pneumoniae; also recorded: E. faecalis; also recorded: C. jeikeium; also recorded: C. jejuni
PF-413: peptide having multiple activities (TFAGSIKIGVPDLVHVTFNCKR; Peptide with targeting and/or antimicrobial activity) | MRSA (C) | S. epidermidis (C) |  | E. coli (S) | G B |  | P. aeruginosa; also recorded: C. albicans; also recorded: C. jejuni
PF-478: peptide having multiple activities (chain 1 HLFILKSHLKPFPPFRYTYD; chain 2 HLFILKSHLKPFPPFRYTYD; Peptide with targeting and/or antimicrobial activity) | MRSA (H) | S. epidermidis (C) | S. pneumoniae (C) | E. coli (C) | G B |  | 
PF-619: peptide having multiple activities (WSRVPGHSDTGWKVWHRW; Peptide with targeting and/or antimicrobial activity) | MRSA (M) | S. epidermidis (M) | S. pneumoniae (C) | E. coli (C) | G B |  | 
